Patent US20140350050A1, “PYRIDINE COMPOUNDS AS INHIBITORS OF KINASE” (TELIGENE LTD., priority 2011, published 2014)
Read-outs that look alike come from different tables or passages of the source.

Legend:
ALK kinase = ALK kinase (Homo sapiens, UniProt Q9UM73); experiment: ALK kinase assay; assay type: biochemical
Description: An in vitro assay which determines the ability of a test compound to inhibit ALK kinase. a) kinase-tagged T7 phage strains were prepared in an E. coli host derived from the BL21 strain. E. coli were grown to log-phase and infected with T7 phage and incubated with shaking at 32° C. until lysis. The lysates were centrifuged and filtered to remove cell debris. The remaining kinases were produced in HEK-293 cells and subsequently tagged with DNA for qPCR detection. […] The liganded beads were blocked with excess biotin and washed with blocking buffer (SeaBlock (Pierce), 1% BSA, 0.05% Tween 20, 1 mM DTT) to remove unbound ligand and to reduce non-specific binding. […] All reactions were performed in polystyrene 96-well plates in a final volume of 0.135 ml. […] The kinase concentration in the eluates was measured by qPCR. […]
b) An alternative method to conduct the kinase assay with the following condition and procedure: Reagent: Base Reaction buffer; 20 mM Hepes (pH 7.5), 10 mM MgCl2, 1 mM EGTA, 0.02% Brij35, 0.02 mg/ml BSA, 0.1 mM Na3VO4, 2 mM DTT, 1% DMSO.
1. Preparing indicated substrate in freshly prepared Base Reaction Buffer
2. Delivering any required cofactors to the substrate solution above
3. Delivering indicated kinase into the substrate solution and gently mix
4. Delivering compounds in DMSO into the kinase reaction mixture
5. Delivering ^33P-ATP (specific activity 0.01 μCi/μl final) into the reaction mixture to initiate the reaction.
6. Incubating kinase reaction for 120 min. at room temperature
7. Reactions are spotted onto P81 ion exchange paper (Whatman #3698-915)
8. Washing filters extensively in 0.75% Phosphoric acid. […]
c) An alternative method to conduct the kinase assay with the following condition and procedure: The assay was performed using Kinase-Glo Plus luminescence kinase assay kit (Promega). It measures kinase activity by quantitating the amount of ATP remaining in solution following a kinase reaction. The luminescent signal from the assay is correlated with the amount of ATP present and is inversely correlated with the amount of kinase activity.
The compound were diluted in 10% DMSO and 5 μl of the dilution was added to a 50 μl reaction so that the final concentration of DMSO is 1% in all of reactions. All of the enzymatic reactions were conducted at 30° C. for 40 minutes. The 50 μl reaction mixture contains 40 mM Tris, pH 7.4, 10 mM MgCl2, 0.1 mg/ml BSA, 1 mM DTT, 0.2 mg/ml substrate peptide, 10 μM ATP and ALK (Table 2.3.1). After the enzymatic reaction, 50 μl of Kinase-Glo Plus Luminescence kinase assay solution (Promega) was added to each reaction and incubate the plate for 5 minutes at room temperature. Luminescence signal was measured using a BioTek Synergy 2 microplate reader. ALK activity assays were performed in duplicate at each concentration. The luminescence data were analyzed using the computer software, Graphpad Prism. The difference between luminescence intensities in the absence of ALK (Lut) and in the presence of ALK (Luc) was defined as 100% activity (Lut−Luc). Using luminescence signal (Lu) in the presence of the compound, % activity was calculated as % activity={(Lut−Lu)/(Lut−Luc)}×100%, where Lu=the luminescence intensity in the presence of the compound (all percent activities below zero were shown zero in the table). The values of % activity versus a series of compound concentrations were then plotted using non-linear regression analysis of Sigmoidal dose-response curve generated with the equation Y=B+(T−B)/1+10^((Log EC50−X)×Hill Slope), where Y=percent activity, B=minimum percent activity, T=maximum percent activity, X=logarithm of compound and Hill Slope=slope factor or Hill coefficient. The IC50 value was determined by the concentration causing a half-maximal percent activity.

[1] = target: T1, BAF3-EML4-ALK stable cell line (Homo sapiens, UniProt Q9UM73); experiment: BAF3-EML4-ALK cell assay (MTT cell proliferation); assay type: cell-based; details: 72 hours, read-out: BAF3-EML4-ALK Cell (IC50 grading)
T1 construct: fused on or other part: Q9HC35 (Echinoderm microtubule-associated protein-like 4)
T1 sequence (Q9UM73 whole entry, change not shown, the tested form may be a part): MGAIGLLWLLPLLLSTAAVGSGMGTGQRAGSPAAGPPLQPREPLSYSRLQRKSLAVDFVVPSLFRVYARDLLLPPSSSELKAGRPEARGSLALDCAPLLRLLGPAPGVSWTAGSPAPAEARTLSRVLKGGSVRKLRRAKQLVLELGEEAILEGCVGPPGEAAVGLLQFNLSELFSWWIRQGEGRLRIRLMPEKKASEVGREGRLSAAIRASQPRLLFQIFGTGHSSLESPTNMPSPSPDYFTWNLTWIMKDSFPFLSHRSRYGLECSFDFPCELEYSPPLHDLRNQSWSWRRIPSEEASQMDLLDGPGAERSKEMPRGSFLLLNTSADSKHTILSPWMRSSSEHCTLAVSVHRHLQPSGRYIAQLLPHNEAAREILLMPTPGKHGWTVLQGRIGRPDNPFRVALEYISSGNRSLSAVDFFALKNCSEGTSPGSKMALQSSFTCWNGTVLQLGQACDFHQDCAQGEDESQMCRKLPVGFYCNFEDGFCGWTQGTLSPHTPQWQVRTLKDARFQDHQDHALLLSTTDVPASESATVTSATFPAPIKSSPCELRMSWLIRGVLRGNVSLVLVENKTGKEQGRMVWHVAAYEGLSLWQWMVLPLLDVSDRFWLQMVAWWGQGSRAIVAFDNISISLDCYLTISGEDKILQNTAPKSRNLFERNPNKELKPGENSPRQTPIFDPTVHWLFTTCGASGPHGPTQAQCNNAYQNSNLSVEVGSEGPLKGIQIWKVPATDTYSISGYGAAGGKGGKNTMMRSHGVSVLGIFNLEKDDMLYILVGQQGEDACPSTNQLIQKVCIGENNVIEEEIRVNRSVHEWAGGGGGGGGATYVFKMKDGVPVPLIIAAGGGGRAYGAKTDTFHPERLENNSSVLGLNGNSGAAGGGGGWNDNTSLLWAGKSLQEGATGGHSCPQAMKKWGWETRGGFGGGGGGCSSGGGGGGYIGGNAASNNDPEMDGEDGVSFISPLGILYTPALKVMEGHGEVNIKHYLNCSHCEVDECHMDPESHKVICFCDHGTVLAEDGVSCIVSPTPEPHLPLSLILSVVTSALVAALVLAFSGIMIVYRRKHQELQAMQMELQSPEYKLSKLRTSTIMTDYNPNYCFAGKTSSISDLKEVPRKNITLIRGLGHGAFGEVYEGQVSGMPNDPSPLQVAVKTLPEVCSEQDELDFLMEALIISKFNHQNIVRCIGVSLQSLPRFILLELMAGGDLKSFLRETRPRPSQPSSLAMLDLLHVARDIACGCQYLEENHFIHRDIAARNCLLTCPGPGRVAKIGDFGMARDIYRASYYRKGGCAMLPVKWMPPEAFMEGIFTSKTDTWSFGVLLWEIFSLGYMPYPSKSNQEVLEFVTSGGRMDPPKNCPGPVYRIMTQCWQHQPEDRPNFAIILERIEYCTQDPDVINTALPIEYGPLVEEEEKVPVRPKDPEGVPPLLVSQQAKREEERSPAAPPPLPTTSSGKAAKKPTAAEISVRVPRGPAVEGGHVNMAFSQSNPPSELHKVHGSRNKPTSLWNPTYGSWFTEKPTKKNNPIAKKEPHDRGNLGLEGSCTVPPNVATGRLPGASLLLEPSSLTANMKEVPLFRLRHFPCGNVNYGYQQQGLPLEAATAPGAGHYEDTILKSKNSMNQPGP
Description: BAF3-EML4-ALK Cell Assay:
A method of establishing BAF3-EML4-ALK stable cell line: Transfer 5×10^6 BAF3 cells to a new tube, pellet the cells, and remove PBS by aspiration.; Resuspend the cells in 1 ml electroporation buffer, this provides 5×10^6 of cells; Transfer 200 μl of cell suspension to EP tube, add 5 ug DNA, flip and place it on ice for 10 min; Pipet the 200 μl cell suspension into 2 mm electroporation cuvette; Place the cuvette into shockpod, close the lid, and press the PULSE button; Set parameters: Expentional decay pulse: VOL=200 V; CAP=900 uF, RES=1000Ω; Transfer all cells from electroporation cuvette to 6 well plate, adding 2 ml DMEMF12 containing 5 ng/ml IL3, 24 h later, replace the medium with DMEM F12 containing 2 μg/ml blasticidin S and 5 ng/ml IL3, maintain for 3 days; change the medium with DMEM F12 containing 2 ug/ml blasticidin S and 2.5 ng/ml IL3, maintain 3 days; change the medium with DMEM F12 containing 2 ug/Ml blasticidin S, maintain to culture.
MTT Cell proliferation assay: 5×10^3 per well cell with 100 μl medium was seeded in 96-well plate; 24 hours later, 100 μl fresh medium with various concentration of compounds; After the cells were treated by compounds for 72 hours, add 20 μl MTT (5 mg/ml) into each wells; The plate is incubated at 37° C. for 4 hours; Centrifuge the plate at 800 g for 10 mins, Aspirated the medium, add 150 μl DMSO into each well. Shake plates gently for 10 mins, Measure the absorbance at 570 nm on plate reader; IR=(WC−WT)/WC.

Chain of ALK kinase (Q9UM73 19-1620): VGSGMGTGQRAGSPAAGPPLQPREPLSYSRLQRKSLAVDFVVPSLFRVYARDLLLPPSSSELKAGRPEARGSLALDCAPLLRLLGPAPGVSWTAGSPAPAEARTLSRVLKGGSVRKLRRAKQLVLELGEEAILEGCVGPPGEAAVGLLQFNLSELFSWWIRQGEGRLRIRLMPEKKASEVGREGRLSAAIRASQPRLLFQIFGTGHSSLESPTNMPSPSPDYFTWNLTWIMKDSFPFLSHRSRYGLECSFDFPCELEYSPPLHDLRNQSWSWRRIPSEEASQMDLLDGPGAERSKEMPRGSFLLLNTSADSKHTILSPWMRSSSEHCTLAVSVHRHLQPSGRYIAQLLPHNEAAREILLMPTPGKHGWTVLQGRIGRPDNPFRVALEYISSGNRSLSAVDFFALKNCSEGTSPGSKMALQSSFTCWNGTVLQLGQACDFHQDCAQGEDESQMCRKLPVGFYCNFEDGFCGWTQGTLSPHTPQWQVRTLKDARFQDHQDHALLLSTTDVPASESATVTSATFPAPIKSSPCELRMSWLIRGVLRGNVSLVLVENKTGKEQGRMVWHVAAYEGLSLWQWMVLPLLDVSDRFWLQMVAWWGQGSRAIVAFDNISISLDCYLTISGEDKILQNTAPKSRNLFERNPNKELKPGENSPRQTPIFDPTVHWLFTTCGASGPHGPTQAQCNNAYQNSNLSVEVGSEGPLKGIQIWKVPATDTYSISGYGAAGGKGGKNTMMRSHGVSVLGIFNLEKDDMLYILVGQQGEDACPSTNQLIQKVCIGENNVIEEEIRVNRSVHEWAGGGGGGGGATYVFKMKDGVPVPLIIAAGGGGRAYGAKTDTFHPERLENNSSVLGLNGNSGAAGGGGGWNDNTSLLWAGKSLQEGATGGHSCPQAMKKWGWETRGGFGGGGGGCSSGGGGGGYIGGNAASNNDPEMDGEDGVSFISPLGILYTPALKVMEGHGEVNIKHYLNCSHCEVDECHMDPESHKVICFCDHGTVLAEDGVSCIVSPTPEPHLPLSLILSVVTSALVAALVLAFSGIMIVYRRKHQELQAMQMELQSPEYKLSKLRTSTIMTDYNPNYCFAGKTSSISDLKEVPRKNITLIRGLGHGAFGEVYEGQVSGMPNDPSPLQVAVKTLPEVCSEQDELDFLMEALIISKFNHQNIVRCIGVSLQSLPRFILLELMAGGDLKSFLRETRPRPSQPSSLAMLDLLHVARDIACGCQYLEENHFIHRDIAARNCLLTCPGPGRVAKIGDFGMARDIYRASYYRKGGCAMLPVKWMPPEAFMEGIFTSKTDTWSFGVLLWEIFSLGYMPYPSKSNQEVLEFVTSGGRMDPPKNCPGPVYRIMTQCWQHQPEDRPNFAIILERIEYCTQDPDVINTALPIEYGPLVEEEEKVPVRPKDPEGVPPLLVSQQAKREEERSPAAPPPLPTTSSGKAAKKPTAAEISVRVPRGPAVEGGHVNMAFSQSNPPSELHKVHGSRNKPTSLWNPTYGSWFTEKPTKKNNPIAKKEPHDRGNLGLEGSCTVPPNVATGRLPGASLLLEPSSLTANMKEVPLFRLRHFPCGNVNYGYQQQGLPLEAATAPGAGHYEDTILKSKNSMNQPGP

IC50 (ALK kinase; ALK kinase assay, read-out: ALK (IC50 grading)): ≤ 100 nM
IC50 (ALK kinase; read-out: IC50 in the ALK kinase assay): 1.35 nM
GI50 [1]: ≤ 100 nM
Compound: [2H]C([2H])([2H])C([2H])([2H])N1CCC(n2cc(-c3cnc(N)c(O[C@H](C)c4c(Cl)ccc(F)c4Cl)c3)cn2)CC1 [Compound 22, (R)-3-(1-(2,6-dichloro-3-fluorophenyl)ethoxy)-5-(1-(1-d5-ethylpiperidin-4-yl)-1H-pyrazol-4-yl)pyridin-2-amine]
